Source: patent publication US11352352B2, “Aminopyrimidine compound, preparation method therefor and use thereof” (BEIJING ADAMADLE BIOTECHNOLOGY LIMITED LIABILITY COMPANY, priority 2017, dated 2022)

What was measured:
Assay in all cases: Cell proliferation inhibition experiment, CellTiter-Glo (CTG) method
Assay type in all cases: cell-based
A-431 = conditions: Homo sapiens, A-431, 72 h, A-431 cells, 3 days
Procedure, shortened: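 Luminescent ATP read-out (CellTiter-Glo) after 3-day compound exposure at 37 °C; a T0 plate was read on the day of dosing. Nine concentrations, 3-fold steps, triplicate wells: A-431 from 30 μM, NCI-H1975 and PC-9 from 1.111 μM. IC50 by non-linear S-curve regression.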

NCI-H1975 = conditions: for IC50: Homo sapiens, NCI-H1975, 72 h, NCI-H1975 cells, CTG, 3 days; for A-431/NCI-H1975 Selectivity: ratio of A-431 IC50 to NCI-H1975 IC50
Procedure, shortened: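 NCI-H1975 cells with viability above 90% by trypan blue were seeded at 90 μL per well in black 96-well plates and incubated overnight at 37° C., 5% CO2. Compounds were added at nine concentrations in triplicate, and viability was measured with CellTiter-Glo luminescence on EnVision. IC50 came from non-linear S-curve fitting in GraphPad Prism 5.0.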

PC-9 = conditions: Homo sapiens, PC-9, 72 h, PC-9 cells, 3 days
Procedure, shortened: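 Cells in log-phase growth (viability above 90% by trypan blue) were seeded at 90 μL per well in black-walled, clear-bottom 96-well plates and incubated overnight at 37° C., 5% CO2. A T0 plate was read the next day. Test compounds were added at nine concentrations in triplicate with a solvent control. Viability was measured by CellTiter-Glo luminescence on EnVision, and IC50 came from non-linear S-curve fitting in GraphPad Prism 5.0.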

| IC50 (A-431) | IC50 (NCI-H1975) | IC50 (PC-9) | SMILES | A-431/NCI-H1975 Selectivity (NCI-H1975) |
| --- | --- | --- | --- | --- |
| 987 nM | 5.6 nM | 13.9 nM | C=CC(=O)Nc1cc(Nc2cc(-c3ccc4c(cnn4C)c3)ncn2)c(OC(F)F)cc1N(C)CCNC(C)C [compound 272] | 176.3 |
| 2680 nM | 53.3 nM | 79.8 nM | C=CC(=O)Nc1cc(Nc2cc(-c3ccc4c(cnn4C)c3)ncn2)c(OC(F)F)cc1N1CCN(CCO)CC1 [compound 273] | 50.2 |
| 2040 nM | 47 nM | 56.7 nM | C=CC(=O)Nc1cc(Nc2cc(-c3ccc4cnn(C)c4c3)ncn2)c(OC)cc1N1CCN(CCO)CC1 [compound 274] | 43.4 |
| 3300 nM | 136 nM | 43.2 nM | C=CC(=O)Nc1cc(Nc2cc(-c3ccc4cnn(C)c4c3)ncn2)c(OC(F)F)cc1N1CCN(CCO)CC1 [compound 275] | 24.3 |
| 2110 nM | 32.4 nM | 13 nM | C=CC(=O)Nc1cc(Nc2cc(-c3ccc4cnn(C)c4c3)ncn2)c(OC)cc1N1C[C@@H](C)N[C@@H](C)C1 [compound 276] | 65.1 |
| 2010 nM | 52.9 nM | 21.9 nM | C=CC(=O)Nc1cc(Nc2cc(-c3ccc4cnn(C)c4c3)ncn2)c(OC(F)F)cc1N1C[C@@H](C)N[C@@H](C)C1 [compound 277] | 37.9 |
| 2480 nM | 117 nM | 40.9 nM | C=CC(=O)Nc1cc(Nc2nccc(-c3ccc4c(cnn4C)c3)n2)c(OC)cc1N1CCN(CCO)CC1 [compound 278] | 21.2 |
| 2900 nM | 25.7 nM | 21.4 nM | C=CC(=O)Nc1cc(Nc2nccc(-c3ccc4c(cnn4C)c3)n2)c(OC)cc1N(C)CCO [compound 279] | 112.8 |
| 3220 nM | 99.4 nM | 87.4 nM | C=CC(=O)Nc1cc(Nc2nccc(-c3ccc4c(cnn4C)c3)n2)c(OC)cc1N1C[C@@H](C)N[C@@H](C)C1 [compound 280] | 32.4 |
| 3330 nM | 72 nM | 67.9 nM | C=CC(=O)Nc1cc(Nc2nccc(-c3ccc4c(cnn4C)c3)n2)c(OC)cc1N(C)CCNC(C)C [compound 281] | 46.2 |
| 1370 nM | 22.7 nM | 32.7 nM | C=CC(=O)Nc1cc(Nc2cc(-c3ccc4c(cnn4C)c3)ncn2)c(CC)cc1N1CCN(C)CC1 [compound 282] | 60.4 |
| 1520 nM | 37.3 nM | 46.9 nM | C=CC(=O)Nc1cc(Nc2cc(-c3ccc4c(cnn4C)c3)ncn2)c(CC)cc1N1CCC(N2CCOCC2)CC1 [compound 283] | 40.8 |
| 670 nM | 26.3 nM | 13.4 nM | C=CC(=O)Nc1cc(Nc2cc(-c3ccc4c(cnn4C)c3)ncn2)c(OC)cc1N1CCC(N(C)C)C1 (centres unmarked) [compound 284] | 25.5 |
| 633 nM | 40.6 nM | 23.1 nM | C=CC(=O)Nc1cc(Nc2cc(-c3ccc4nc(C)sc4c3)ncn2)c(OC)cc1OCCN(C)C [compound 285] | 15.6 |
| 804 nM | 40.1 nM | 30.9 nM | C=CC(=O)Nc1cc(Nc2cc(-c3ccc4c(cnn4C)c3)ncn2)c(OC)cc1C(=O)N(C)CCN(C)C [compound 286] | 20.0 |
| 612 nM | 4 nM | 9.2 nM | C=CC(=O)Nc1cc(Nc2cc(-c3ccc4c(cnn4C)c3)ncn2)c(OC(F)F)cc1N(C)CCN(C)C [compound 287] | 152.9 |
| 1920 nM | 98.2 nM | 76.7 nM | C=CC(=O)Nc1cc(Nc2cc(-c3ccc4c(cnn4C)c3)ncn2)c(OC)cc1N(C)C(=O)CN(C)C [compound 288] | 19.6 |
